Experimental data published in patent US20110300132A1, “4-AMINOQUINAZOLINE PRODRUGS” (Concert Pharmaceuticals, Inc., priority 2008, published 2011).
≈ marks a conversion by molar mass, not a printed value. Read-outs that look alike come from different tables or passages of the source.

What was measured:
[1] = Evaluation of aqueous solubility in different aqueous buffers (HPLC quantification); type: physicochemical; conditions: thermodynamic from solid, equilibrated at 25° C. for 24 hours
Experimental: Aqueous solubility of the compounds of this invention was determined by suspending sufficient compound in different aqueous buffers to give a maximum final concentration of ≧10 mg/mL of the compound. The resulting suspension was equilibrated at 25° C. for 24 hours then the pH is measured. The suspension was then filtered through a glass fibre C filter into a 96 well plate. The filtrate was diluted by a factor of 10. Quantification was by HPLC with reference to a standard solution in DMSO. Different volumes of the standard, diluted and undiluted sample solutions were injected. The solubility was calculated using the peak areas determined by integration of the peak found at the same retention time as the principal peak in the standard injection.

[2] = as reported on FDA approved label, cited from earlier work
[3] = Buffer: FaSSIF (fasted state simulated intestinal fluid), final pH 6.61 (103), 6.58 (101)

Structure (SMILES) | solubility at 24 h [1, 3] | solubility at 24 h ([1]; aqueous buffer, Buffer: Phosphate pH 6.3, final pH 6.45) | solubility at 24 h ([1]; aqueous buffer, Buffer: Phosphate pH 6.8, final pH 7.03) | solubility at 24 h ([1]; aqueous buffer, Buffer: Phosphate pH 7.3, final pH 7.41) | Solubility ([2]; 0.1N HCl) | Solubility ([2]; Water)
CS(=O)(=O)CCN(Cc1ccc(-c2ccc3ncnc(Nc4ccc(OCc5cccc(F)c5)c(Cl)c4)c3c2)o1)C(=O)OCOP(=O)(O)O [Compound 101, Phosphonooxymethyl (5-(4-(3-chloro-4-(3-fluorobenzyloxy)phenylamino)quinazolin-6-yl)furan-2-yl)methyl(2-(methylsulfonyl)ethyl)carbamate] | 25 µg/mL (≈ 34 µM) | – | – | – | – | –
CS(=O)(=O)CCN(Cc1ccc(-c2ccc3ncnc(Nc4ccc(OCc5cccc(F)c5)c(Cl)c4)c3c2)o1)C(=O)OCOP(=O)([O-])[O-].[Na+].[Na+] [Compound 103, Sodium (((5-(4-(3-Chloro-4-(3-fluorobenzyloxy)phenylamino)quinazolin-6-yl)furan-2-yl)methyl)(2-(methylsulfonyl)ethyl)carbamoyloxy)methyl phosphate] | 9100 µg/mL | 170 µg/mL | 520 µg/mL | 4600 µg/mL | – | –
CS(=O)(=O)CCNCc1ccc(-c2ccc3ncnc(Nc4ccc(OCc5cccc(F)c5)c(Cl)c4)c3c2)o1.Cc1ccc(S(=O)(=O)O)cc1.Cc1ccc(S(=O)(=O)O)cc1.O [Lapatinib ditosylate, N-[3-Chloro-4-(3-fluorobenzyloxy)phenyl]-6-[5-[2-(methylsulfonyl)ethylaminomethyl]furan-2-yl]quinazolin-4-amine bis(4-methylbenzenesulfonate) hydrate] | – | – | – | – | 1 µg/mL | 7 µg/mL
